Measurements taken from the supplement of paper PMC10307832.

Compound: C[C@@H](C(=O)N[C@@H](C1CCCCC1)C(=O)N2CCC[C@H]2C(=O)N[C@@H]3[C@@H](CC4=CC=CC=C34)OCC#CC#CCO[C@@H]5CC6=CC=CC=C6[C@@H]5NC(=O)[C@@H]7CCCN7C(=O)[C@H](C8CCCCC8)NC(=O)[C@H](C)NC)NC [AZD5582] + Nc1nc2[nH]cc(CCc3ccc(C(=O)N[C@@H](CCC(=O)O)C(=O)O)cc3)c2c(=O)[nH]1 [Pemetrexed] (partner 0.2 µM)
Assay: relative viability (nuclei count vs DMSO), 5 days (fraction); higher = more cells survive
Settings: first compound 0.001581 µM
Method in brief: (§1)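 Cells from lung cancer lines were seeded into 1536-well plates and, one day later, dosed by pin tool. Treatments were either a single drug or a fixed dose of an anchor drug with five library-drug doses (not always all listed) in √10 steps. After 5 days, nuclei were stained in a one-step fixation (final 0.05% Triton X-100, 1% formaldehyde, 1 ug/ml Hoechst) and counted on 4× images, and relative viability is the treated-to-vehicle nuclei ratio, as the median of duplicate plates.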

Cell Line	relative viability
HARA	0.22
HCC-15	0.227
HCC-44	0.587
HCC-78	0.931
HCC-366	0.119
HCC-827	0.272
HOP-62	0.262
LC-2-ad	0.283
LCLC-97TM1	0.185
LCLC-103H	0.386
LK-2	0.199
LOU-NH91	0.341
NCI-H358	0.178
NCI-H522	0.989
NCI-H1395	0.852
NCI-H1563	0.682
NCI-H1648	0.654
NCI-H1792	0.71
NCI-H1793	0.787
NCI-H1944	0.455
NCI-H2170	0.26
NCI-H2342	0.79
SK-MES-1	0.904
SW 900	0.366

Same assay, conditions: first compound 0.005 µM

Cell Line	relative viability
201T	0.299
A-427	0.92
BEN	0.723
CAL-12T	0.811
COR-L23	0.206
COR-L 105	1.11
ChaGo-K-1	0.267
EKVX	0.39
EMC-BAC-2	0.406
H3255	0.563
HARA	0.213
HCC-15	0.197
HCC-44	0.615
HCC-78	0.878
HCC-366	0.155
HCC-827	0.273
HOP-62	0.312

Cell Line	relative viability
LC-2-ad	0.272
LCLC-97TM1	0.205
LCLC-103H	0.426
LK-2	0.25
LOU-NH91	0.367
NCI-H358	0.171
NCI-H522	1.13
NCI-H1395	0.964
NCI-H1563	0.742
NCI-H1648	0.738
NCI-H1792	0.881
NCI-H1793	1.21
NCI-H1944	0.556
NCI-H2170	0.249
NCI-H2342	0.747
SK-MES-1	1.01
SW 900	0.466

Same assay, conditions: first compound 0.01581 µM

Cell Line	relative viability
201T	0.298
A-427	0.978
BEN	0.925
CAL-12T	1.11
COR-L23	0.191
COR-L 105	1
ChaGo-K-1	0.254
EKVX	0.344
EMC-BAC-2	0.426
EPLC-272H	0.346
H3255	0.512
HARA	0.214
HCC-15	0.218
HCC-44	0.614
HCC-78	0.901
HCC-366	0.15

Cell Line	relative viability
HCC-827	0.283
HOP-62	0.345
LC-2-ad	0.28
LCLC-97TM1	0.16
LCLC-103H	0.443
LOU-NH91	0.367
NCI-H358	0.179
NCI-H522	0.976
NCI-H1563	0.586
NCI-H1792	0.557
NCI-H1793	0.624
NCI-H1944	0.521
NCI-H2170	0.268
NCI-H2342	0.756
SK-MES-1	0.975
SW 900	0.486

Same assay, conditions: first compound 0.05 µM

Cell Line	relative viability
201T	0.281
A-427	0.89
BEN	0.759
CAL-12T	0.967
COR-L23	0.196
COR-L 105	1.25
ChaGo-K-1	0.276
EKVX	0.375
EMC-BAC-2	0.46
EPLC-272H	0.104
H3255	0.573
HARA	0.231
HCC-15	0.211
HCC-44	0.402
HCC-78	0.949
HCC-366	0.152
HCC-827	0.205
HOP-62	0.371

Cell Line	relative viability
LC-2-ad	0.278
LCLC-97TM1	0.16
LCLC-103H	0.352
LK-2	0.256
LOU-NH91	0.408
NCI-H358	0.17
NCI-H522	0.823
NCI-H1395	1.13
NCI-H1563	0.861
NCI-H1648	0.708
NCI-H1792	1.05
NCI-H1793	1.07
NCI-H1944	0.62
NCI-H2170	0.269
NCI-H2342	0.791
SK-MES-1	0.939
SW 900	0.435

Compound: Cn1nnc2c(C(N)=O)ncn2c1=O [Temozolomide] + O=C(CCCCCCC(=O)Nc1ccccc1)NO [Vorinostat] (partner 1 µM)
Assay: as above
Settings: first compound 0.2 µM
Method in brief: as §1

Cell Line	relative viability
201T	0.942
A-427	0.883
ABC-1	1.48
BEN	0.567
CAL-12T	0.889
COR-L23	0.521
COR-L 105	0.769
ChaGo-K-1	0.85
EMC-BAC-2	0.831
EPLC-272H	0.386
HARA	0.575
HCC-15	0.79
HCC-44	1.15
HCC-78	0.372
HCC-366	0.443
HCC-827	0.637
HOP-62	0.873
IA-LM	0.842
LC-2-ad	0.824
LCLC-97TM1	0.98
LCLC-103H	0.943
LK-2	0.345
LOU-NH91	0.799
NCI-H358	0.558
NCI-H522	0.762
NCI-H1395	0.901
NCI-H1944	0.557
NCI-H2342	0.673
SK-MES-1	1.41
SW 900	0.741

Same assay, conditions: first compound 0.6325 µM

Cell Line	relative viability
201T	0.939
A-427	0.896
ABC-1	0.771
